Laboratory results from US20240292836A1, “AGENTS FOR REPELLING, KNOCKING DOWN, AND/OR KILLING BLOOD-SUCKING ARTHROPODS AND USES THEREOF” (The United States of America, as represented by the …, priority 2023, published 2024).
Entries after “also recorded” stand apart in the source; their conditions may differ.

What was measured:
[1] = system: female Aedes aegypti adults; test: High-throughput in vitro screening assay, spatial repellency; assay type: in vivo; conditions: for RD50 (30 min), half-repellent dose / RD50 (60 min), half-repellent dose: dose per filter paper surface area, 95% CI; for spatial repellency (in words): highest-tested dose of 100 μg/cm^2; for 30-minute RD50 compared with that of DEET: 30 minutes, α = 0.05
Source text: A high-throughput screening method for evaluating spatial repellency and vapor toxicity, described by Jiang S., et al. (2019, “High-Throughput Screening Method for Evaluating Spatial Repellency and Vapour Toxicity to Mosquitoes,” Med. Vet. Entomol. 33: 388-396), was used for this study. As shown in FIG. 2 of Jiang S., et al., assay tubes were constructed by covering 12.5 cm glass tubes on one side with netting secured by a rubber band. The tubes were used in horizontal orientation. Adult mosquitos 2-7 days old were anesthetized on ice for approximately 5 minutes and 16 females were transferred to each tube. The other end of the tube was then closed with netting and a rubber band.
The conical ends of 50 mL centrifuge tubes (Eppendorf, Enfield, Connecticut, USA) were cut at approximately the 10 mL mark to create the end caps for the assay tubes. […] For repellency tests, filter papers for the “untreated” side of the assay tube received pure acetone, whereas filter papers for the “treated” side received acetone solution containing a dissolved compound of interest. For knockdown tests, both filter papers were treated with acetone solution containing one or more compounds of interest. Acetone on both filter papers served as negative controls.
For repellency assays, filter papers were given 10 minutes of evaporation time before being placed into the end caps with forceps (Jiang S., et al. 2019, Supra). For knockdown assays, filter papers were given 5 minutes of evaporation time before being placed into the end caps. […] Assay tubes were capped such that the cap securely overlapped the glass but approximately 5 mm of space was left between the netting and the filter paper so that the mosquitos could not contact the filter paper.
Assay tubes were placed on a white polystyrene platform with wooden sticks glued flatly across it to prevent the tubes from rolling. A straight black line was drawn down the center of the platform and assay tubes were centered on the line at the beginning of the tests. In repellency assays, data were collected at 15, 30, and 60 minutes after the end caps were placed on the assay tubes. Assay tubes were not disturbed for the entire 60 minutes. At each time point, the number of mosquitos that remained on the treated side was visually assessed and recorded. The treated side was alternated with each set of tests. For repellency tests, DEET at a dose of 100 μg/cm^2 served as the positive control.
For the high-throughput in vitro screening assays, analyses were conducted with R version 4.2.2 statistical software (R Core Team, 2022, “R: a language and environment for statistical computing. R foundation for statistical computing,” Vienna, Austria). Concentrations were calculated in terms of filter paper surface area (μg/cm^2) for repellency assays and in terms of assay tube volume (μg/cm^3) for knockdown assays.
Half-repellent (RD50), half-knockdown (KD50), and half-lethal (LD50) doses were calculated from dose-response curves (DRCs) obtained by four-parameter log-logistic equation models generated using the drc package (Dose Response Curve Analyses Software; Ritz C. et al., 2015, “Dose-response analysis using R,” PLOS ONE 10: e0146021). For repellency test analysis, the upper and lower asymptotes for the proportion of mosquitos remaining on the treated side were fixed at 0.5 and 0, respectively. For KD and mortality test analysis, the upper and lower asymptotes for the proportion of mosquitos knocked down or killed were fixed at 1.0 and 0, respectively. To determine whether RD50, KD50, or LD50 values differed across compounds at each timepoint, a joint model assuming different values for each compound and a null model that assumed a single value for all compounds were compared with a likelihood ratio test.

[2] = system: female Aedes aegypti adults; test: Arm-in-cage cloth-patch in vivo assay (topical repellency); conditions: for Minimum Effective Dose (MED): Mean ± SEM, lowest dosage with five or fewer bites through repellent-treated cloth in 1-minute exposure, at least three volunteers; for topical repellency (in words): initial screening dose of 0.187 mg/cm^2
Source text: Arm-in-Cage Test Cloth-Patch in vivo Assay Pyrethroid-susceptible yellow fever mosquitoes Ae. aegypti (Orlando strain) were reared in the United States Department of Agriculture Mosquito and Fly Research Unit in Gainesville, FL under standard protocols. Three to seven-day-old, starved female mosquitoes were collected using a “draw box” (Posey, K. and Schreck, C. E, 1981, “An airflow apparatus for selecting female mosquitoes for use in repellent and attraction studies” Mosquito News 41: 566-568; US. Department of Agriculture, 1977, Repellent activity of compounds submitted by Walter Reed Army Institute of Research. Part 1. Protection time and minimum effective dosage against Aedes aegypti mosquitoes. Tech. Bull. No. 1549) and were placed in cages at an approximate density 200 mosquitoes/cage. Repellency was determined according to a standard protocol (Bernier, U. R., et al, 2022. “Evaluation and application of repellent-treated uniform/clothing and textiles against vector mosquitoes,” In Advances in Arthropod Repellents (pp. 69-94). Academic Press) and reported as the minimum effective dosage (MED). […] A nylon leg stocking was placed over the arm to prevent direct contact of the repellent-treated cloth patch with the skin. […]. Cloth was treated by placing a rolled bandage (50 cm^2) into each vial containing 1 mL of solution and allowing the patch to absorb the solution completely. The cloth was taped over a 4 by 9-cm opening cut into a vinyl plastic sheet that was draped around the volunteers' arms and taped in place. The cloth was air-dried approximately 15 min before conducting each test. The work reported here is an average of the MED for at least three volunteers. Each volunteer covered his or her arm with a nylon stocking to avoid contact between the skin and the treated cloth and wore a rubber glove to prevent mosquito bites on the hand.
. The minimum effective dose (MED) was determined for each repellent and subject, defined as the lowest concentration that prevents biting). MEDs from each subject were pooled and reported as the average among all replicates/subjects with SEM. A minimum of 3 replicates were performed on at least three human subjects. Written informed consent was obtained for all human subjects used in this study in accordance with IRB protocol #20193320, as approved by the WCG™ IRB.
Statistical Analyses: Student's T-test was used to compare the means between tested compound and DEET and Icaridin in the arm-in-cage in vivo assay and neurophysiological study.

[3] = system: female Aedes aegypti adults; test: High-throughput in vitro screening assay, knockdown and mortality; conditions: for KD50 (60 min), half-knockdown dose / KD50 (30 min), half-knockdown dose: dose per assay tube volume, 95% CI; for knockdown and mortality activities (in words): in vivo

Row | SMILES | RD50 (30 min), half-repellent dose [1] | RD50 (60 min), half-repellent dose [1] | spatial repellency (in words) [1] | Minimum Effective Dose (MED) [2] | topical repellency (in words) [2] | KD50 (60 min), half-knockdown dose [3] | time at which knockdown began ([3]; FIG. 6A, 6B, 6D) | knockdown and mortality activities (in words) [3] | 30-minute RD50 compared with that of DEET [1] | KD50 (30 min), half-knockdown dose [3] | MED, times lower than the initial screening dose ([2]; relative to initial screening dose of 0.187 mg/cm^2)
1 | CCCCOC(=O)c1ccccc1 [nBB, n-butyl benzoate] | >100 μg/cm^2 | >100 μg/cm^2 | did not show spatial repellencies | 0.148 mg/cm^2 | demonstrated repellency at doses lower than 0.187 mg/cm^2 on at least one test subject | 3.09 µg/mL | 5 min | exhibited considerable knockdown and mortality activities | – | – | –
2 | CCCCCCOC(=O)c1ccccc1 [nHB, n-hexyl benzoate] | – | – | – | >0.187 mg/cm^2 | did not show any topical repellencies | 4.72 µg/mL | – | exhibited considerable knockdown and mortality activities | not significantly different from that of DEET | 7.06 µg/mL | –
3 | COC(=O)c1ccccc1[N+](=O)[O-] [M2NB, methyl 2-nitrobenzoate] | – | – | – | 0.025 mg/cm^2 | – | >7 µg/mL | – | – | not significantly different from that of DEET | >7 µg/mL | –
4 | COC(=O)c1ccc(N)cc1 [M4AB, methyl 4-aminobenzoate] | >100 μg/cm^2 | >100 μg/cm^2 | did not show spatial repellencies | >0.187 mg/cm^2 | did not show any topical repellencies | – | – | – | – | – | –
5 | CCCOC(=O)c1ccc(O)cc1 [nPr4HB, n-propyl 4-hydroxylbenzoate] | >100 μg/cm^2 | >100 μg/cm^2 | did not show spatial repellencies | >0.187 mg/cm^2 | did not show any topical repellencies | – | – | – | – | – | –
6 | COC(=O)c1ccccc1Cl [M2CB, methyl 2-chlorobenzoate] | – | – | – | 0.164 mg/cm^2 | demonstrated repellency at doses lower than 0.187 mg/cm^2 on at least one test subject | – | – | – | not significantly different from that of DEET | – | –
7 | COC(=O)c1cccc(C)c1 [M3MB, methyl 3-methylbenzoate] | >100 μg/cm^2 | >100 μg/cm^2 | did not show spatial repellencies | 0.219 mg/cm^2 | demonstrated repellency at doses lower than 0.187 mg/cm^2 on at least one test subject | – | – | – | – | – | –
8 | COC(=O)c1ccccc1S(N)(=O)=O [M2ASB, methyl 2-(aminosulfonyl)benzoate] | >100 μg/cm^2 | >100 μg/cm^2 | did not show spatial repellencies | >0.187 mg/cm^2 | did not show any topical repellencies | – | – | – | – | – | –
9 | COC(=O)c1ccc(OC)cc1 [M4MOB, methyl 4-methoxybenzoate] | >100 μg/cm^2 | >100 μg/cm^2 | did not show spatial repellencies | >0.187 mg/cm^2 | did not show any topical repellencies | – | – | – | – | – | –
10 | O=C(OCc1ccccc1)c1ccccc1 [BB, benzyl benzoate] | >100 μg/cm^2 | >100 μg/cm^2 | did not show spatial repellencies | >0.187 mg/cm^2 | did not show any topical repellencies | – | – | – | – | – | –
11 | CCCOC(=O)c1ccccc1 [nPrB, n-propyl benzoate] | >100 μg/cm^2 | >100 μg/cm^2 | did not show spatial repellencies | 0.250 mg/cm^2 | demonstrated repellency at doses lower than 0.187 mg/cm^2 on at least one test subject | – | – | – | – | – | –
12 | CCCCOC(=O)c1ccc(O)cc1 [nB4HB, n-butyl 4-hydroxybenzoate] | >100 μg/cm^2 | >100 μg/cm^2 | did not show spatial repellencies | >0.187 mg/cm^2 | did not show any topical repellencies | – | – | – | – | – | –
13 | CCOC(=O)c1ccc(OC)cc1 [E4MOB, ethyl 4-methoxybenzoate] | – | – | – | >0.187 mg/cm^2 | did not show any topical repellencies; also recorded: did not exhibit topical repellency | – | – | – | significantly lower than that of DEET | – | –
14 | CCOC(=O)c1ccccc1NC=O [EFA, ethyl N-formylanthranilate] | >100 μg/cm^2 | >100 μg/cm^2 | did not show spatial repellencies | 0.0062 mg/cm^2 | – | – | – | – | – | – | 30 times
15 | CCOC(=O)c1ccccc1OC [E2MOB, ethyl 2-methoxybenzoate] | 8.83 μg/cm^2 | – | – | – | did not exhibit topical repellency | – | – | – | significantly lower than that of DEET | – | –
16 | COC(=O)c1ccc(C)cc1 [M4MB, methyl 4-methylbenzoate] | >100 μg/cm^2 | >100 μg/cm^2 | did not show spatial repellencies | >0.187 mg/cm^2 | did not show any topical repellencies | – | – | – | – | – | –
17 | C=COC(=O)c1ccccc1 [VB, vinyl benzoate] | >100 μg/cm^2 | >100 μg/cm^2 | did not show spatial repellencies | >0.187 mg/cm^2 | did not show any topical repellencies | – | – | – | – | – | –
